Data from US20240197652A1, “KETAMINE IN THE TREATMENT OF […]” (Awakn LS Europe Holdings Limited, priority 2021, published 2024).

Legend:
Format in all cases: in vivo, human
[1] = Plasma ketamine, HNK and norketamine levels, binge eating disorder subjects (Example 8); conditions: analyte = label; for peak plasma concentration: 100 mg racemic ketamine sublingual; for time of peak plasma concentration: post-administration of 100 mg racemic ketamine sublingual
Procedure: A study was completed on the use of ketamine to treat binge eating disorder. Subjects were assessed for binge eating disorder using the Binge Eating Scale (BES), and included if they received a BES score greater than 15. Three subjects in total were included (BE1-BE3, and interchangeably on FIGS. 5 and 6 as BED1-BED3, these being the same subjects). All three were administered sublingual lozenges comprising 100 mg of racemic ketamine.
Blood samples were collected from all three subjects. Blood samples were analysed to determine ketamine and ketamine metabolite levels, as well as the hormones leptin and ghrelin. Self-report measures were conducted.
The treatment protocol commenced in substantially the same way as disclosed in the ketamine in subjects with gambling disorder study completed in EXAMPLE 7, with the exceptions outlined as follows: No behavioural tasks were completed. Blood samples collected every 10 minutes from the time of administration to 90 minutes post-administration were additionally analysed for leptin and ghrelin. Self-report measures included the Binge Eating Scale, the Adult Attachment Interview (AAI), a 20 question interview about the subject's recollections of their childhood (Sykes and Turner, 2015); the Childhood Trauma Questionnaire; the Morningness-Eveningness Questionnaire (MEQ), a 19-item questionnaire designed to assess when a respondent prefers to wake up or start sleep (American Thoracic Society, 2022); the DSM-5 Binge Eating Disorder diagnostic criteria; and the SPSRQ.

[2] = Mean plasma ketamine, HNK and norketamine, all subjects of Examples 7-10; conditions: human, plasma, other: sublingual, 100 mg racemic ketamine sublingual, analyte = label
Procedure: (§1) Blood samples were collected every 10 minutes, from 0 minutes (the time of administration) to 90 minutes post-administration. Blood samples at each time point were analysed to determine plasma levels of (2S,6S;2R,6R)-Hydroxynorketamine (HNK).
FIGS. 11-13 illustrate ketamine, HNK, and norketamine levels, respectively, for all subjects of EXAMPLES 7-10, while FIG. 14 illustrates the mean plasma levels of ketamine, HNK, and norketamine for all subjects of EXAMPLES 7-10. Results indicated a mean plasma concentration of ketamine of 104.87 ng/ml at 10 minutes, 230.11 ng/ml at 20 minutes, 267.08 ng/ml at 30 minutes, 271.62 ng/ml at 40 minutes, 288.48 ng/ml at 50 minutes, 272.42 ng/ml at 60 minutes, 263.40 ng/ml at 70 minutes, 227.50 ng/ml at 80 minutes, and 176.91 ng/ml at 90 minutes. Mean HNK was 0 at 10 minutes, 12.22 ng/ml at 20 minutes, 56.73 ng/ml at 30 minutes, 79.10 ng/ml at 40 minutes, 126.20 ng/ml at 50 minutes, 198.87 ng/ml at 60 minutes, 221.08 ng/ml at 70 minutes, 209.14 ng/ml at 80 minutes, and 217.32 ng/ml at 90 minutes. Mean norketamine was 1.92 at 10 minutes, 57.39 ng/ml at 20 minutes, 141.78 ng/ml at 30 minutes, 286.02 ng/ml at 40 minutes, 505.15 ng/ml at 50 minutes, 646.73 ng/ml at 60 minutes, 750.57 ng/ml at 70 minutes, 723.79 ng/ml at 80 minutes, and 653.94 ng/ml at 90 minutes.

[3] = Plasma ketamine, HNK and norketamine levels, gambling disorder subjects (Example 7); conditions: analyte = label; for peak plasma concentration: 100 mg racemic ketamine sublingual; for time of peak plasma concentration: post-administration of 100 mg racemic ketamine sublingual
Procedure: A study was completed on the use of ketamine to treat gambling disorder. Subjects were assessed for gambling disorder using the PGSI. Subjects were included if they received a PGSI score greater than 3. Five subjects in total were included (G1-G5). All five subjects were administered ketamine. Blood samples were collected from all five subjects. Blood samples were analysed to determine ketamine and ketamine metabolite levels, and each subject was assessed post-administration to determine the effectiveness of the treatment.
On Day 3, each subject returned on-site and was administered ketamine. 100 mg of racemic ketamine was administered in as sublingual lozenges.
as §1

[4] = Plasma ketamine, HNK and norketamine levels, gaming disorder subjects (Example 9); conditions: analyte = label; for peak plasma concentration: 100 mg racemic ketamine sublingual; for time of peak plasma concentration: post-administration of 100 mg racemic ketamine sublingual
Procedure: A study was completed on ketamine to treat gaming disorder. Subjects were assessed for gaming disorder using the Internet Gaming Disorder Scale (IGDS) and were included if they received an IGDS score greater than 3. Three subjects in total were included (IG1-IG3). All three were administered sublingual lozenges comprising 100 mg of racemic ketamine.
Blood samples were collected from all three subjects. Blood samples were analysed to determine ketamine and ketamine metabolite levels. Assessments were conducted as below.
The treatment protocol commenced in the same manner as disclosed in the ketamine in subjects with gambling disorder study completed in EXAMPLE 7, with the exceptions as follow: No behavioural tasks were completed. Self-report measures completed during EXAMPLE 9 included Social Phobia Inventory (SPIN), the Craving for Gaming Questionnaire (CGQ), and Generalised Anxiety Disorder-7 (GAD-7) the Sensitivity to Reward and Punishment Scale, and the Childhood Trauma Questionnaire, the Morningness-Eveningness Questionnaire (MEQ).

[5] = subject BE1 (no data at 30 minutes)

In the case of CNC1(c2ccccc2Cl)CCCCC1=O (racemic) [ketamine, 2-(2-chlorophenyl)-2-(methylamino)-cyclohexanone], the peak plasma concentration [1, 5] is reported as “about 270 ng/ml”, the “time of peak plasma concentration” value [1, 5] is reported as 20 min and the peak plasma concentration ([1]; subject BE2) is reported as “about 339 ng/ml”. For the same compound, the “time of peak plasma concentration” value ([1]; subject BE2) was 20 min, the peak plasma concentration ([1]; subject BE3) was “about 208 ng/mL” and the “time of peak plasma concentration” value ([1]; subject BE3) was 60 min. The concentration at 10 min ([2]; 10 minutes post-administration) was 105 ng/mL, the concentration at 20 min ([2]; 20 minutes post-administration) was 230 ng/mL and the concentration at 30 min ([2]; 30 minutes post-administration) was 267 ng/mL. The concentration at 40 min ([2]; 40 minutes post-administration) was 272 ng/mL, the concentration at 50 min ([2]; 50 minutes post-administration) was 288 ng/mL and the concentration at 60 min ([2]; 60 minutes post-administration) was 272 ng/mL. It also gave a concentration at 70 min ([2]; 70 minutes post-administration) of 263 ng/mL, a concentration at 80 min ([2]; 80 minutes post-administration) of 228 ng/mL and a concentration at 90 min ([2]; 90 minutes post-administration) of 177 ng/mL. The peak plasma concentration ([3]; subject G1) was “about 250 ng/ml”, the “time of peak plasma concentration” value ([3]; subject G1) was 30 min and the peak plasma concentration ([3]; subject G2) was “about 405 ng/ml”. For the same compound, the “time of peak plasma concentration” value ([3]; subject G2) was 70 min, the peak plasma concentration ([3]; subject G3) was “about 395 ng/ml” and the “time of peak plasma concentration” value ([3]; subject G3) was 80 min. For the same compound, the peak plasma concentration ([3]; subject G4) was “about 291 ng/ml”, the “time of peak plasma concentration” value ([3]; subject G4) was 80 min and the peak plasma concentration ([3]; subject G5) was “about 426 ng/ml”. For the same compound, the “time of peak plasma concentration” value ([3]; subject G5) was “about 20 minutes”, the peak plasma concentration ([4]; subject IG1) was “about 390 ng/ml” and the “time of peak plasma concentration” value ([4]; subject IG1) was 50 min. The peak plasma concentration ([4]; subject IG2) was “about 301 ng/ml”, the “time of peak plasma concentration” value ([4]; subject IG2) was 50 min and the peak plasma concentration ([4]; subject IG3) was “about 670 ng/mL”. For the same compound, the “time of peak plasma concentration” value ([4]; subject IG3) was 50 min.
